Test results from patent US10780083B1, “Charged ion channel blockers and methods for use” (Nocion Therapeutics, Inc., priority 2019, dated 2020).

Assay: PAMPA membrane permeability assay
Type: in vitro ADME
Conditions: pH 7.4 buffer, incubated for 4 hours, passive diffusion
Experimental: The PAMPA assay (pION, Inc., Woburn Mass.) was used to determine the ability of compounds of the invention to cross an artificial lipid membrane by passive diffusion. Test compounds were dissolved in DMSO (10 mM) and diluted 200-fold in buffer (pION Inc., pH 7.4) to provide 50 uM stock solutions. Buffer (150 μL) was added to a UV blank plate and stock solutions (150 μL) were transferred to a UV reference plate. The blank and reference spectrum were read using a spectrophotometer. Stock solutions (200 μL) were added to the donor plate of the PAMPA sandwich plate and an accept plate painted with GIT lipid (pION Inc, 5 μL) was placed on top. Buffer (200 μL) was added to the acceptor plate and the PAMPA sandwich plate was incubated for 4 hours. Aliquots (150 μL) from the acceptor plate were added to a UV plate and read as acceptor spectrum. Aliquots (150 μL) of the donor solutions were added to a UV analysis plate and read as donor spectrum. The permeability coefficient of test compounds was calculated using PAMPA Explorer™ software (version 3.5.0.4) based on the AUC of the reference plate, the donor plate, and the acceptor plate.

Row | Papp at 4 h, 50 uM | Structure (SMILES)
1 | < 1 ×10⁻⁶ cm/s | Cc1cccc(C)c1NC(=O)C[N+]1(Cc2ccccc2)CCCC1.[Br-] [2A′, 1-benzyl-1-(2-((2,6-dimethylphenyl)amino)-2-oxoethyl) pyrrolidin-1-ium bromide]
2 | < 1 ×10⁻⁶ cm/s | CCC(C(=O)Nc1c(C)cccc1C)[N+]1(Cc2ccccc2)CCCCC1.[Br-] (centres unmarked) [3A′, 1-benzyl-1-(1-((2,6-dimethylphenyl)amino)-1-oxobutan-2-yl)piperidin-1-ium bromide]
3 | < 1 ×10⁻⁶ cm/s | Cc1cccc(C)c1NC(=O)C[N+]1(Cc2ccccc2)CCCCCC1.[Br-] [4A′, 1-benzyl-1-(2-((2,6-dimethylphenyl)amino)-2-oxoethyl) azepan-1-ium bromide]
4 | < 1 ×10⁻⁶ cm/s | CCC(C(=O)Nc1c(C)cccc1C)[N+]1(Cc2ccccc2)CCCCCC1.[Br-] (centres unmarked) [5A′, 1-benzyl-1-(1-((2,6-dimethylphenyl)amino)-1-oxobutan-2-yl) azepan-1-ium bromide]
5 | < 1 ×10⁻⁶ cm/s | Cc1cccc(C)c1NC(=O)C[N+]1(Cc2ccccc2)CCCCCCC1.[Br-] [6A′, 1-benzyl-1-(2-((2,6-dimethylphenyl)amino)-2-oxoethyl) azocan-1-ium bromide]
